# Tests used:
# Format in all cases: cell-based
# [1] = system: Salmonella typhimurium and Salmonella worthington; experiment: Bioscreen growth in Lab-Lemco broth (Example 9A), Salmonella strains; details: 128 μg/ml, Lab-Lemco broth pH 6.0, 37° C.
# Description: (§1) […] […] Plates were then covered, incubated at 37° C., and the opacity of the organism suspensions measured using a Bioscreen instrument (a semi-automated microbiological growth analyser, available from Thermolabsystems, Ashford, Middlesex, U.K.).
# (§2) The results are shown in FIG. 13, which is a graph of optical density against time (in hours). The optical density readings were taken in “wide band” (wb) mode, i.e. using white light without any filter.
# [2] = system: Citrobacter freundii, Enterobacter aerogenes, Enterobacter cloacae; experiment: Bioscreen growth in Lab-Lemco broth (Example 9A), other strains; details: 128 μg/ml, Lab-Lemco broth pH 6.0, 37° C., other strains tested
# Description: as §1, §2
# [3] = system: Citrobacter freundii OCC 370; experiment: mixed culture viable count in Nutrient Broth No. 2 (Example 9B); details: 128 μg/ml, Nutrient Broth No. 2, mixed culture with Salmonella, 37° C.
# Description: (§3) L-Pyroglutamyl-L-aminoethylphosphonate was added to Oxoid Nutrient Broth No. 2 (final concentration=128 μg/ml) contained in a universal tube in a water bath at 37° C. Citrobacter freundii OCC 370 and Salmonella typhimurium OCC 626 were grown overnight in Nutrient Broth No. 2 at 37° C., diluted 1 in 1000 in Maximal Recovery Diluent and amounts added to the Nutrient Broth to give final concentrations of about 10^4 cfu/ml of each organism. At intervals samples were taken and spread on XLD and the number of red colonies with black centres enumerated as Salmonella and yellow ones as Citrobacter.
# (§4) The results are shown in FIG. 14, which is a graph of Log10 viable count (cfu/ml) against time (in hours). The plots for C. freundii are shown by lozenge symbols, whist those for S. typhimurium are shown by squares. Filled symbols and solid lines show results in the presence of Pyr-AEP, empty symbols and dotted lines show results in the absence of Pyr-AEP.
# [4] = system: Salmonella typhimurium OCC 626; experiment: as above; details: 128 μg/ml, Nutrient Broth No. 2, mixed culture with Citrobacter, 37° C.
# Description: as §3, §4
# [5] = system: Citrobacter freundii OCC261; experiment: MIC from Bioscreen growth curves in various media (Example 13)
# Description: (§5) In general, media containing a higher concentration of short chain peptides, for example hydrolysed casein, reduced the effectiveness of the inhibitor. Thus, Pyr-AEP was dissolved in deionised water (51.2 mg/ml), filter sterilised, and amounts of the solution added to autoclaved Bacteriological Peptone, Casein Hydrolysate, Lab-Lemco broth and Proteose Peptone (20 g/l; pH 7.3) to give a dilution series of 1,477, 739, 369, 185 μg/ml. Volumes ([…]) of these solutions were then pipetted into the wells of Bioscreen microtitre plates and 30 μl quantities of 1 in 10,000 dilutions of overnight cultures of Citrobacter freundii OCC 261, Enterobacter aerogenes OCC 720, Salmonella enteritidis OCC 723 and Salmonella virchow OCC 703 added. Plates were then covered, incubated at 37° C., and the opacity of the organism suspensions, measured using a Bioscreen instrument.
# [6] = system: Enterobacter aerogenes OCC720; experiment: as above
# Description: as §5
# [7] = system: Salmonella enteritidis OCC723; experiment: as above
# Description: as §5
# [8] = system: Salmonella virchow OCC703; experiment: as above
# Description: as §5
smiles,measurement,setting,value
"C[C@H](NC(=O)[C@@H]1CCC(=O)N1)P(=O)(O)O [Pyr-AEP, L-pyroglutamyl-L-1-aminoethylphosphonic acid]",growth (optical density) in presence of the agent,[1],not inhibited
same,growth (optical density) in presence of the agent,[2],inhibited
same,effect on growth (Log10 viable count),[3],completely inhibitory
same,effect on growth (Log10 viable count),[4],no significant effect
same,Minimum inhibitory concentration,"[5]; Citrobacter freundii OCC261, Bacteriological Peptone",168 µg/mL
same,Minimum inhibitory concentration,"[5]; Citrobacter freundii OCC261, Casein Hydrolysate",>1343 µg/mL
same,Minimum inhibitory concentration,"[5]; Citrobacter freundii OCC261, Lab-Lemco",168 µg/mL
same,Minimum inhibitory concentration,"[5]; Citrobacter freundii OCC261, Proteose Peptone",1343 µg/mL
same,Minimum inhibitory concentration,"[6]; Enterobacter aerogenes OCC720, Bacteriological Peptone",671 µg/mL
same,Minimum inhibitory concentration,"[6]; Enterobacter aerogenes OCC720, Casein Hydrolysate",>1343 µg/mL
same,Minimum inhibitory concentration,"[6]; Enterobacter aerogenes OCC720, Lab-Lemco",336 µg/mL
same,Minimum inhibitory concentration,"[6]; Enterobacter aerogenes OCC720, Proteose Peptone",>1343 µg/mL
same,Minimum inhibitory concentration,"[7]; Salmonella enteritidis OCC723, Bacteriological Peptone",671 µg/mL
same,Minimum inhibitory concentration,"[7]; Salmonella enteritidis OCC723, Casein Hydrolysate",>1343 µg/mL
same,Minimum inhibitory concentration,"[7]; Salmonella enteritidis OCC723, Lab-Lemco",1343 µg/mL
same,Minimum inhibitory concentration,"[7]; Salmonella enteritidis OCC723, Proteose Peptone",1343 µg/mL
same,Minimum inhibitory concentration,"[8]; Salmonella virchow OCC703, Bacteriological Peptone",671 µg/mL
same,Minimum inhibitory concentration,"[8]; Salmonella virchow OCC703, Casein Hydrolysate",>1343 µg/mL
same,Minimum inhibitory concentration,"[8]; Salmonella virchow OCC703, Lab-Lemco",1343 µg/mL
same,Minimum inhibitory concentration,"[8]; Salmonella virchow OCC703, Proteose Peptone",1343 µg/mL
